Patent publication US20240166652A1, “MODULATORS OF THE INTEGRATED STRESS PATHWAY” (Calico Life Sciences LLC, priority 2017, published 2024)

System: ATF4 luciferase reporter in HEK293T cells
Experiment: ATF4-Luc assay (ATF4 luciferase reporter, tunicamycin-treated HEK293T cells)
Assay type: cell-based, human
Conditions: Homo sapiens, HEK-293T; HEK293T cells carrying the ATF4 luciferase reporter, 1 μg/mL tunicamycin, 7 hours
Protocol: In order to test exemplary compounds of the invention in a cellular context, a stable VWMD cell line was first constructed. The ATF4 reporter was prepared by fusing the human full-length ATF4 5′-UTR (NCBI Accession No. BC022088.2) in front of the firefly luciferase (FLuc) coding sequence lacking the initiator methionine as described in Sidrauski et al (eLife 2013). The construct was used to produce recombinant retroviruses using standard methods and the resulting viral supernatant was used to transduce HEK293T cells, which were then subsequently selected with puromycin to generate a stable cell line.
HEK293T cells carrying the ATF4 luciferase reporter were plated on polylysine coated 384-well plates (Greiner Bio-one) at 30,000 cells per well. Cells were treated the next day with 1 μg/mL tunicamycin and 200 nM of a compound of Formula (I) for 7 hours. Luminescence was measured using One Glo (Promega) as specified by the manufacturer. Cells were maintained in DMEM with L-glutamine supplemented with 10% heat-inactivated FBS (Gibco) and Antibiotic-Antimycotic solution (Gibco).
Table 2 below summarizes the EC50 data obtained using the ATF4-Luc assay for exemplary compounds of the invention.

Row | SMILES | EC50 [nM]
1 | O=C(CCc1ccc(Cl)cc1)NC12CC(NC(=O)COc3ccc(Cl)c(F)c3)(C1)C2 [Compound 102, N-{3-[2-(4-chloro-3-fluorophenoxy)acetamido]bicyclo[1.1.1]pentan-1-yl}-3-(4-chlorophenyl)propanamide] | 50 to 250
2 | O=C(COc1ccc(Cl)cc1)NC12C3C4C1C1C2C3C41NC(=O)COc1ccc(Cl)cc1 (centres unmarked) [Compound 103, N,N′-(pentacyclo[4.2.0.0^2,50^3,80^4,7]octane-1,4-diyl)bis[2-(4-chlorophenoxy)-acetamide]] | 10 to 50
3 | O=C(CCn1ncc(Cl)cc1=O)NC12CC(NC(=O)COc3ccc(Cl)c(F)c3)(C1)C2 [Compound 104, N-{3-[2-(4-chloro-3-fluorophenoxy)acetamido]bicyclo[1.1.1]pentan-1-yl}-3-(4-chloro-6-oxopyridazin-1(6H)-yl)propanamide] | 250 to 500
4 | O=C(COc1ccc(Cl)c(Cl)c1)NC12CC(NC(=O)COc3cnc(C(F)(F)F)cn3)(C1)C2 [Compound 105, 2-(3,4-dichlorophenoxy)-N-[3-(2-{[5-(trifluoromethyl)pyrazin-2-yl]oxy}acetamido)bicyclo[1.1.1]pentan-1-yl]acetamide] | 10 to 50
5 | O=C(COc1ccc(Cl)c(Cl)c1)NC12CC(NC(=O)COc3ccc(Cl)c(Cl)c3)(C1)C2 [Compound 106, N,N′-(bicyclo[1.1.1]pentane-1,3-diyl)bis[2-(3,4-dichlorophenoxy)acetamide]] | < 10
6 | O=C(COc1ccc(Cl)c(F)c1)NC12CC(NC(=O)COc3cnc(C(F)(F)F)cn3)(C1)C2 [Compound 107, 2-(4-chloro-3-fluorophenoxy)-N-[3-(2-{[5-(trifluoromethyl)pyrazin-2-yl]oxy}acetamido)bicyclo[1.1.1]pentan-1-yl]acetamide] | 50 to 250
7 | O=C(COc1ccc(Cl)c(F)c1)NC12CC(NC(=O)COc3ccc4cn[nH]c4c3)(C1)C2 [Compound 108, 2-(4-chloro-3-fluorophenoxy)-N-(3-{2-[(1H-indazol-6-yl)oxy]acetamido}-bicyclo[1.1.1]pentan-1-yl)acetamide] | 10 to 50
8 | O=C(COc1ccc2cn[nH]c2c1)NC12CC(NC(=O)COc3ccc4cn[nH]c4c3)(C1)C2 [Compound 109, N,N′-(bicyclo[1.1.1]pentane-1,3-diyl)bis{2-[(1H-indazol-6-yl)oxy]acetamide}] | 500 to 2000
9 | Cc1noc2cc(OCC(=O)NC34CC(NC(=O)COc5ccc(Cl)c(F)c5)(C3)C4)ccc12 [Compound 110, 2-(4-chloro-3-fluorophenoxy)-N-(3-{2-[(3-methyl-1,2-benzoxazol-6-yl)oxy]acetamido}bicyclo[1.1.1]pentan-1-yl)acetamide] | 500 to 2000
10 | O=C(COc1ccc(Cl)c(F)c1)NC12CC(NC(=O)COc3cc(F)c4cn[nH]c4c3)(C1)C2 [Compound 111, 2-(4-chloro-3-fluorophenoxy)-N-(3-{2-[(4-fluoro-1H-indazol-6-yl)oxy]acetamido}-bicyclo[1.1.1]pentan-1-yl)acetamide] | < 10
11 | O=C(COc1ccc(Cl)cc1)NC12CC(NCCOc3ccc(Cl)cc3)(C1)C2 [Compound 113, 2-(4-chlorophenoxy)-N-(3-{[2-(4-chlorophenoxy)ethyl]amino}bicyclo-[1.1.1]pentan-1-yl)acetamide] | 50 to 250
12 | Cc1cccc(OCC(=O)NC23CC(NC(=O)COc4ccc(Cl)cc4)(C2)C3)c1 [Compound 114, 2-(4-chlorophenoxy)-N-{3-[2-(3-methylphenoxy)acetamido]bicyclo[1.1.1]-pentan-1-yl}acetamide] | 10 to 50
13 | Cc1ccc(OCC(=O)NC23CC(NC(=O)COc4ccc(Cl)cc4)(C2)C3)cc1 [Compound 115, 2-(4-chlorophenoxy)-N-{3-[2-(4-methylphenoxy)acetamido]bicyclo-[1.1.1]pentan-1-yl}acetamide] | 50 to 250
14 | Cc1cc(OCC(=O)NC23CC(NC(=O)COc4ccc(Cl)cc4)(C2)C3)ccc1Cl [Compound 116, 2-(4-chloro-3-methylphenoxy)-N-{3-[2-(4-chlorophenoxy)acetamido]bicyclo-[1.1.1]pentan-1-yl}acetamide] | < 10
15 | O=C(COc1ccc(Cl)cc1)NC12CC(NC(=O)COc3ccc(Cl)c(Cl)c3)(C1)C2 [Compound 117, 2-(4-chlorophenoxy)-N-{3-[2-(3,4-dichlorophenoxy)acetamido]bicyclo-[1.1.1]pentan-1-yl}acetamide] | < 10
16 | O=C(COc1ccc(Cl)cc1)NC12CC(NC(=O)COc3cccc(Cl)c3)(C1)C2 [Compound 118, 2-(4-chlorophenoxy)-N-{3-[2-(3-chlorophenoxy)acetamido]bicyclo-[1.1.1]pentan-1-yl}acetamide] | 10 to 50

Row | SMILES | EC50 [nM]
17 | O=C(COc1ccc(Cl)cc1)NC12CC(NC(=O)COc3cccc(F)c3)(C1)C2 [Compound 119, 2-(4-chlorophenoxy)-N-{3-[2-(3-fluorophenoxy)acetamido]-bicyclo[1.1.1]pentan-1-yl}acetamide] | 50 to 250
18 | O=C(COc1ccc(F)cc1)NC12CC(NC(=O)COc3ccc(Cl)cc3)(C1)C2 [Compound 120, 2-(4-chlorophenoxy)-N-{3-[2-(4-fluorophenoxy)acetamido]bicyclo-[1.1.1]pentan-1-yl}acetamide] | 10 to 50
19 | O=C(COc1ccc(Cl)c(F)c1)NC12CC(NC(=O)COc3ccc(Cl)c(Cl)c3)(C1)C2 [Compound 121, 2-(4-chloro-3-fluorophenoxy)-N-{3-[2-(3,4-dichlorophenoxy)acetamido]-bicyclo[1.1.1]pentan-1-yl}acetamide] | < 10
20 | O=C(COc1ccc(Cl)c(Cl)c1)NC12CC(NC(=O)COc3ccc(Cl)cc3F)(C1)C2 [Compound 122, 2-(4-chloro-2-fluorophenoxy)-N-{3-[2-(3,4-dichlorophenoxy)acetamido]-bicyclo[1.1.1]pentan-1-yl}acetamide] | < 10
21 | O=C(COc1ccc(Cl)c(Cl)c1)NC12CC(NCCOc3ccc(Cl)cc3F)(C1)C2 [Compound 123, N-(3-{[2-(4-chloro-2-fluorophenoxy)ethyl]amino}bicyclo[1.1.1]pentan-1-yl)-2-(3,4-dichlorophenoxy)acetamide] | 10 to 50
22 | O=C(COc1ccc(Cl)c(Cl)c1)NC12CC(NCCOc3ccc(Cl)c(F)c3)(C1)C2 [Compound 124, N-(3-{[2-(4-chloro-3-fluorophenoxy)ethyl]amino}bicyclo[1.1.1]pentan-1-yl)-2-(3,4-dichlorophenoxy)acetamide] | 10 to 50
23 | O=C(COc1ccc(Cl)c(Cl)c1)NC12CC(NCCOc3ccc(Cl)c(Cl)c3)(C1)C2 [Compound 125, 2-(3,4-dichlorophenoxy)-N-(3-{[2-(3,4-dichlorophenoxy)ethyl]amino}-bicyclo[1.1.1]pentan-1-yl)acetamide] | < 10
24 | COc1cc(OCC(=O)NC23CC(NC(=O)COc4ccc(Cl)c(F)c4)(C2)C3)ccc1Cl [Compound 126, 2-(4-chloro-3-fluorophenoxy)-N-{3-[2-(4-chloro-3-methoxyphenoxy)acetamido]-bicyclo[1.1.1]pentan-1-yl}acetamide] | < 10
25 | CS(=O)(=O)c1ccc(OCC(=O)NC23CC(NC(=O)COc4ccc(Cl)c(F)c4)(C2)C3)cc1 [Compound 127, 2-(4-chloro-3-fluorophenoxy)-N-(3-{2-[4-(methanesulfonyl)-phenoxy]acetamido}-bicyclo[1.1.1]pentan-1-yl)acetamide] | 500 to 2000
26 | Cc1cccc(COCC(=O)NC23CC(NC(=O)COc4ccc(Cl)c(F)c4)(C2)C3)n1 [Compound 128, 2-(4-chloro-3-fluorophenoxy)-N-(3-{2-[(6-methylpyridin-2-yl)methoxy]acetamido}bicyclo[1.1.1]pentan-1-yl)acetamide] | 500 to 2000
27 | O=C(COCc1ccc(Cl)cc1)NC12CC(NC(=O)COc3ccc(Cl)c(F)c3)(C1)C2 [Compound 130, 2-(4-chloro-3-fluorophenoxy)-N-(3-{2-[(4-chlorophenyl)methoxy]acetamido}-bicyclo[1.1.1]pentan-1-yl)acetamide] | 10 to 50
28 | O=C(COCc1cccc(Cl)c1)NC12CC(NC(=O)COc3ccc(Cl)c(F)c3)(C1)C2 [Compound 131, 2-(4-chloro-3-fluorophenoxy)-N-(3-{2-[(3-chlorophenyl)methoxy]acetamido}-bicyclo[1.1.1]pentan-1-yl)acetamide] | 10 to 50
29 | O=C(COCCc1cccc(F)c1)NC12CC(NC(=O)COc3ccc(Cl)c(F)c3)(C1)C2 [Compound 132, 2-(4-chloro-3-fluorophenoxy)-N-(3-{2-[2-(3-fluorophenyl)ethoxy]acetamido}-bicyclo[1.1.1]pentan-1-yl)acetamide] | 50 to 250
30 | O=C(COCCc1cccc(Cl)c1)NC12CC(NC(=O)COc3ccc(Cl)c(F)c3)(C1)C2 [Compound 133, 2-(4-chloro-3-fluorophenoxy)-N-(3-{2-[2-(3-chlorophenyl)ethoxy]acetamido}-bicyclo[1.1.1]pentan-1-yl)acetamide] | 50 to 250
31 | O=C(COCCc1ccc(F)cc1)NC12CC(NC(=O)COc3ccc(Cl)c(F)c3)(C1)C2 [Compound 134, 2-(4-chloro-3-fluorophenoxy)-N-(3-{2-[2-(4-fluorophenyl)ethoxy]acetamido}-bicyclo[1.1.1]pentan-1-yl)acetamide] | 50 to 250
32 | O=C(COCCc1ccc(Cl)cc1)NC12CC(NC(=O)COc3ccc(Cl)c(F)c3)(C1)C2 [Compound 135, 2-(4-chloro-3-fluorophenoxy)-N-(3-{2-[2-(4-chlorophenyl)ethoxy]acetamido}-bicyclo[1.1.1]pentan-1-yl)acetamide] | 250 to 500
